This is an account of results in patent US4882272A, “High molecular weight kininogen assay” (Temple University - of the Commonwealth System of Higher …, priority 1987, dated 1989).

The assay has as its target T1, human factor XIa (Homo sapiens, UniProt P03951).
T1 construct: converted to the active enzyme factor XIa by factor XIIa
Put plainly: Hydrolysis of chromogenic substrate S-2366 by factor XIa. The format is biochemical. Here is the method:
According to one embodiment, a chromogenic substrate for factor XIa is incubated with the assay reaction mixture. The substrate should, under the conditions of the assay, be capable of hydrolysis by factor XIa to yield a hydrolysis product whose appearance may be monitored spectrophotometrically or by a microplate reader. Such substrates include, for example, L-pyroglutamyl-L-prolyl-L-arginine-p-nitroanilide and H-D-leucylthreonyl-arginine-p-nitroanilide, available from KabiVitrum in hydrochloride form as "S-2366" and "S-2511", respectively. The enzymatic activity of factor XIa catalyzes the hydrolysis of the peptide-p-nitroanilide bond, releasing the chromophore p-nitroaniline. The appearance of p-nitroaniline may be measured spectrophotometrically after a fixed hydrolysis time, at 405 nm. The change in absorbance is proportional to the enzyme activity.
S-2366 is the preferred substrate.

Peptide text beside a SMILES is read from it.

T1 sequence (P03951 388-625 limits assumed): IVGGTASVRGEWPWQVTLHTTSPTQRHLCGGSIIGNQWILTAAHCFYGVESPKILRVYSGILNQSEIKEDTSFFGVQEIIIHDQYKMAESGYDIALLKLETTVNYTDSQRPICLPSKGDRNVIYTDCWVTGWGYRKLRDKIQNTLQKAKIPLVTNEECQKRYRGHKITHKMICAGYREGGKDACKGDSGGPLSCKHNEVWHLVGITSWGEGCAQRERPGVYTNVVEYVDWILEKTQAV
T1 sequence (P03951 19-387 partner limits assumed): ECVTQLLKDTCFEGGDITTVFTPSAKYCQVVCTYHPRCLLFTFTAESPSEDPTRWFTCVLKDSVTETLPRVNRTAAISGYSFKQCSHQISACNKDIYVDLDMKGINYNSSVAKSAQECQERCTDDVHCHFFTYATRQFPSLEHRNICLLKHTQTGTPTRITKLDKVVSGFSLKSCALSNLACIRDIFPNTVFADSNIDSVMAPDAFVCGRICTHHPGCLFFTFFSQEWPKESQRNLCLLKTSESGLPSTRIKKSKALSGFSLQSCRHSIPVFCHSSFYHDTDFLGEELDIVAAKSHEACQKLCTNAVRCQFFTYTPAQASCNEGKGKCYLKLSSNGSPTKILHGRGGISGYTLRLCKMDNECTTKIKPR

As for `N=C(N)NCCC[C@H](NC(=O)[C@@H]1CCCN1C(=O)[C@@H]1CCC(=O)N1)C(=O)Nc1ccc([N+](=O)[O-])cc1` [S-2366, L-pyroglutamyl-L-prolyl-L-arginine-p-nitroanilide] (HELM PEPTIDE1{[Glp].P.R.[O=[N+]([O-])c1ccc(N[*:1])cc1]}$$$$V2.0), the “Kcat to Km ratio” value came to 5.5e+06 M⁻¹ s⁻¹.
